“And” between values parts separate entries of the source, which are not always exact repeats. Equal values may be shown once. Where only a bound is given, the exact number is not on record here.

Sequence of 72 kDa type IV collagenase (P08253 whole entry): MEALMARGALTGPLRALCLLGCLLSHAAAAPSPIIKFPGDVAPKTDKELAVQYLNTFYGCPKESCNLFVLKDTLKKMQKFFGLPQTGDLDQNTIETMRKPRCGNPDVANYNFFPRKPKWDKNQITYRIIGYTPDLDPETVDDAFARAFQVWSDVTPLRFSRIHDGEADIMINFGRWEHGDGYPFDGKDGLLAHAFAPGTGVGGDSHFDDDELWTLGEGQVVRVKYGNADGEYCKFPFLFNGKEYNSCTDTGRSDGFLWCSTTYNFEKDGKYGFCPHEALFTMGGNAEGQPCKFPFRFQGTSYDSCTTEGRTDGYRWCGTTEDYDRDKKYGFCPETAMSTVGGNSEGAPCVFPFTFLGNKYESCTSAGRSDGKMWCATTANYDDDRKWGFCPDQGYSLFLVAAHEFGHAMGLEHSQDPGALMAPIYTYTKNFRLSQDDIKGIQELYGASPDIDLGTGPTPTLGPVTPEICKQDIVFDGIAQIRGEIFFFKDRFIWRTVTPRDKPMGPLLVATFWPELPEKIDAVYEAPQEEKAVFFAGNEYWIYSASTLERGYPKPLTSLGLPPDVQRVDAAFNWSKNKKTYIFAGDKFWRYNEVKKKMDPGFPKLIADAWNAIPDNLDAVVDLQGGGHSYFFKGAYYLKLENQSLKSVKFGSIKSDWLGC

This experiment concerns the target 72 kDa type IV collagenase (Homo sapiens, UniProt P08253). As to the kind of experiment: Inhibitory activity against matrix metalloprotease-2 (MMP-2).
By IC50 is commonly meant the concentration that gives 50% inhibition. Turning to `O=C(CN(C(=O)CN(C(=O)Nc1ccc(Oc2ccccc2)cc1)C(c1ccccc1)c1ccccc1)C(c1ccccc1)c1ccccc1)NO`, the IC50 worked out at 50 µM.
The figure for `CCCC(C)N(CC(=O)NO)C(=O)CN(C(=O)Nc1ccc2ccccc2c1)C1CCCc2ccccc21` (stereo not given) is 120 µM.
The figure for `O=C(CN(Cc1ccccc1)C(=O)CN(CCCc1ccccc1)C(=O)Nc1ccc(Oc2ccccc2)cc1)NO` is 0.3 µM; for `CC(C)N(CC(=O)NO)C(=O)CN(CCCc1ccccc1)C(=O)Nc1ccc(Oc2ccccc2)cc1` it is greater than 500 µM.
For `CCCCN(CC(=O)N(CC(=O)NO)C(C)CC)C(=O)Nc1ccc(Oc2ccccc2)cc1` (stereo not given) the value was 54 µM.
`CCCCCN(CC(=O)NO)C(=O)CN(CCCCc1ccccc1)C(=O)Nc1cc(Cl)ccc1OC` yielded an IC50 greater than 500 µM.
For `CSc1ccccc1NC(=O)N(CCCc1ccccc1)CC(=O)N(CC(=O)NO)C(C)(C)C` the value was 150 µM.
The figure for `CCC(C)N(CC(=O)NO)C(=O)CN(Cc1ccccc1)C(=O)Nc1cccc2ccccc12` (stereo not given) is 110 µM.
The figure for `O=C(CN(Cc1ccccc1)C(=O)CN(CC1CCCCC1)C(=O)Nc1ccc(Oc2ccccc2)cc1)NO` is 125 µM.
`CC(C)(C)N(CC(=O)N(CC(=O)NO)CC1CCCCC1)C(=O)Nc1ccc(Oc2ccccc2)cc1` came in with an IC50 of 150 µM.
As for `O=C(CN(CCCCc1ccccc1)C(=O)CN(CCCc1ccccc1)C(=O)Nc1ccc(Oc2ccccc2)cc1)NO`, the IC50 is 0.9 µM and 0.3 µM.
The figure for `CC(C)N(CC(=O)N(CC(=O)NO)C(C)(C)C)C(=O)Nc1ccc(Oc2ccccc2)cc1` is 155 µM.
For `CC(C)N(CC(=O)NO)C(=O)CN(CCc1ccc(F)cc1)C(=O)Nc1ccc(Oc2ccccc2)cc1` the value was 90 µM; for `O=C(CN(CCc1ccc(F)cc1)C(=O)CN(CCCc1ccccc1)C(=O)Nc1ccc(Oc2ccccc2)cc1)NO`, 40 µM; for `CCCCCCCN(CC(=O)NO)C(=O)CN(CCCCC)C(=O)Nc1ccc(Oc2ccccc2)cc1`, 60 µM.
For `O=C(CN(C(=O)CN(CCCc1ccccc1)C(=O)Nc1ccc(Oc2ccccc2)cc1)C1CCCc2ccccc21)NO` (stereo not given) the value was greater than 500 µM; for `CCCCCN(CC(=O)NO)C(=O)CN(C(=O)Nc1ccc(Oc2ccccc2)cc1)C(C)CCC` (stereo not given), 160 µM.
`CCCCCCCN(CC(=O)NO)C(=O)CN(CCCc1ccccc1)C(=O)Nc1ccc(Oc2ccccc2)cc1` showed an IC50 of 150 µM.
For `CCC(C)N(CC(=O)NO)C(=O)CN(CCCc1ccccc1)C(=O)Nc1ccc(Oc2ccccc2)cc1` (stereo not given) the value was 370 µM.
For `CC(C)(C)N(CC(=O)NO)C(=O)CN(CCCc1ccccc1)C(=O)Nc1ccc(Oc2ccccc2)cc1` the value was greater than 500 µM.
The figure for `CCCC(C)N(CC(=O)NO)C(=O)CN(CCCc1ccccc1)C(=O)Nc1ccc(Oc2ccccc2)cc1` (stereo in doubt; form 2) is 100 µM; for `O=C(CN(CCCCc1ccccc1)C(=O)CN(CCCCc1ccccc1)C(=O)Nc1ccc(Oc2ccccc2)cc1)NO` it is 52 µM; for `O=C(CN(CC1CCCCC1)C(=O)CN(CCCc1ccccc1)C(=O)Nc1ccc(Oc2ccccc2)cc1)NO` it is greater than 500 µM.
Turning to `CCCC(C)N(CC(=O)NO)C(=O)CN(CCCc1ccccc1)C(=O)Nc1ccc(Oc2ccccc2)cc1` (stereo in doubt; form 1), the IC50 was found to be 23 µM. This lies in the double-digit micromolar range.
Regarding `CCCCCCCN(CC(=O)NO)C(=O)CN(C(=O)Nc1ccc(OCCCC)cc1)C(c1ccccc1)c1ccccc1`, the IC50 is greater than 500 µM.
For `CCCCN(CC(=O)NO)C(=O)CN(CCc1ccc(F)cc1)C(=O)Nc1ccc(Oc2ccccc2)cc1` the value was 51 µM; for `O=C(CN(CCCc1ccccc1)C(=O)CN(Cc1ccccc1)C(=O)Nc1ccc(Oc2ccccc2)cc1)NO`, 43 µM; for `CCCCCCCN(CC(=O)N(CCc1ccc(F)cc1)CC(=O)NO)C(=O)Nc1ccc(Oc2ccccc2)cc1`, 114 µM.
For `CCCCN(CC(=O)NO)C(=O)CN(CC1CCCCC1)C(=O)Nc1ccc([N+](=O)[O-])cc1C` the value was greater than 500 µM.
For `O=C(CN(C(=O)CN(CCCc1ccccc1)C(=O)Nc1ccc(Oc2ccccc2)cc1)C(c1ccccc1)c1ccccc1)NO` the value was 200 µM; for `CCCCN(CC(=O)NO)C(=O)CN(CCCc1ccccc1)C(=O)Nc1ccc(Oc2ccccc2)cc1`, 230 µM; for `O=C(CN(C(=O)CN(C(=O)Nc1ccc(Oc2ccccc2)cc1)C1CCCc2ccccc21)C1CCCc2ccccc21)NO` (stereo not given), 60 µM.
`CCCCCN(CC(=O)NO)C(=O)CN(CCCc1ccccc1)C(=O)Nc1ccc(Oc2ccccc2)cc1`: the IC50 was determined as 100 µM. This IC50 is about 1.7-fold higher than that of the compound before.
The figure for `CCC(C)N(CC(=O)N(CC(=O)NO)C(C)C)C(=O)Nc1ccc(Oc2ccccc2)cc1` (stereo not given) is 72 µM.
For `O=C(CN(CCCc1ccccc1)C(=O)CN(CCCc1ccccc1)C(=O)Nc1ccc(Oc2ccccc2)cc1)NO` the value was 2 µM.

These data come from ChEMBL document CHEMBL1131996, “Design, combinatorial chemical synthesis and in vitro characterization of novel urea based gelatinase inhibitors” (Bioorg Med Chem Lett, 1999).
